According to US20190177279A1, “CARBOXYLIC ACID AROMATIC 1,2-CYCLOPROPYLAMIDES” (Bayer Pharma Aktiengesellschaft, priority 2017, published 2019):
pIC50: −log10 of the molar value.

The compounds below were run against T1, human B1 receptor (Homo sapiens, UniProt P46663) (assay: Calcium flux assay (FLIPR) with recombinant CHO-K1 cells expressing human B1 receptor). Conditions: absence of 0.1% BSA in assay buffer, agonist Lys-(Des-Arg)-Bradykinin, read-out: hB1 free IC50.
T1 construct: host or cells: CHO-K1
T1 sequence (P46663 1-353): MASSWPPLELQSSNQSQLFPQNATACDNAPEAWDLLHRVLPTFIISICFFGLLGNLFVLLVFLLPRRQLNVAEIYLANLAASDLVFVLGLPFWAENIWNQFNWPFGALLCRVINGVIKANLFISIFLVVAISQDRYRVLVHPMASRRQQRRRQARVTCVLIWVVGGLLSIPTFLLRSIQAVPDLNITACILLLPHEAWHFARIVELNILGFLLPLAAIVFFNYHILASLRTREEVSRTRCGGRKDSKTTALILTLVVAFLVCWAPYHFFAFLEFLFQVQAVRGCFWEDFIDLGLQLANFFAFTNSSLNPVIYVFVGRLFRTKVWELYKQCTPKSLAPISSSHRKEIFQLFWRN
Assay type: cell-based
Experimental: The potency to inhibit the Bradykinin B1 receptors was determined for the example compounds of this invention in a cell-based fluorescent calcium-mobilisation assay. The assay measures the ability of example compounds to inhibit Bradykinin B1 receptor agonist-induced increase of intracellular free Ca^2+ in the cell line expressing B1 receptor. Specifically, calcium indicator—loaded cells are pre-incubated in the absence or presence of different concentrations of example compounds followed by the stimulation with a selective B1 receptor agonist peptide. The change of the intracellular Ca^2+ concentration is monitored with a fluorescent plate reader FLIPR (Molecular Devices).
Calcium flux Assay (FLIPR) with recombinant cells for Bradykinin B1 receptor antagonist, either in the presence (hB1 IC50) or absence (hB1 free IC50) of 0.1% BSA in assay buffer
CHO-K1 cell line expressing human B1 receptor was purchased from Euroscreen (Gosselies, Belgium, with reference name hB1-D1). The cells were grown in Nutrient Mixture Ham's F12 (Sigma) containing 10% Foetal bovine serum (Sigma) and 400 μg/mL G418 (Sigma), 5 μg/mL puromycin (Sigma).
For the calcium flux assay, 80% confluent cells were detached from the culture vessels with Versene (Gibco), and seeded into 384-well plates (Cell binding Surface; Corning, N.Y.; #3683) at a density of 15,000 cells per well. Cells were seeded in a volume of 50 μL in medium without antibiotics and incubated overnight in a humidified atmosphere with 5% CO2 at 37° C. […] The calcium indicator loaded cells were incubated at 37° C. for 2 hrs. Extracellular dye was then removed and each well was filled with 45 μL of assay buffer. Cell plates were kept in dark until used. Example compounds were assayed at 8 concentrations in triplicate. Serial 10-fold dilutions in 100% DMSO were made at a 100-times higher concentration than the final concentration, and then diluted 1:10 in assay buffer. 5 μL of each diluted compound was added to the well of cell plates (yielding final concentration with 1% DMSO), and incubated for 30 min at 28° C. before the addition of B1 receptor agonist on the FLIPR instrument.
Agonist plates contained the agonist Lys-(Des-Arg)-Bradykinin (Bachem, Brackley) at 3.5×EC90 in assay buffer with 1% DMSO. The addition of agonist 20 μl per well to the assay plate was carried out on the FLIPR instrument while continuously monitoring Ca^2+-dependent fluorescence at 538 nm. A peptide antagonist Lys-(Des-Arg-Leu)-Bradykinin (Bachem, Brackley) at 20 µM was used to determine the full inhibition as control.
Peak fluorescence was used to determine the response to agonist obtained at each concentration of example compound by the following equation:
% Response=100*(RFU(example compound)−RFU(control)/(RFU(DMSO)−RFU(control)) • Control=full inhibition by the peptide antagonist Lys-(Des-Arg-Leu)-Bradykinin at 20 μM
The response values were plotted against the logarithm of the compound concentrations. The compounds were tested in triplicates per plate and mean values were plotted in Excel XLfit to determine IC50 values, percentage of maximal inhibition and the Hill slopes.

Row | pIC50 | Compound
1 | 6.96 | Cc1cccc(C2CC2C(=O)Nc2ccc(-c3cnn(C4CCC4)c3)c(C(=O)O)c2)c1 (racemic) [Example 5, 2-(1-cyclobutyl-1H-pyrazol-4-yl)-5-({[2-(3-methylphenyl)cyclopropyl]carbonyl}amino) benzoic acid]
2 | 6.45 | O=C(O)c1cc(NC(=O)C2CC2c2ccccc2OC(F)(F)F)ccc1-c1cnn(C2CCC2)c1 (racemic) [Example 10, 2-(1-cyclobutyl-1H-pyrazol-4-yl)-5-[({2-[2-(trifluoromethoxy)phenyl]cyclopropyl}carbonyl)amino]benzoic acid]
3 | 5.97 | O=C(O)c1cc(NC(=O)C2CC2c2ccc(Cl)cc2)cc(F)c1-c1ccc(C(F)(F)F)nc1 (racemic) [Example 24, 5-({[2-(4-chlorophenyl)cyclopropyl]carbonyl}amino)-3-fluoro-2-[6-(trifluoromethyl)pyridin-3-yl]benzoic acid]
4 | 5.82 | CCC(F)(F)c1ccc(-c2ccc(NC(=O)C3CC3c3ccccc3OC(F)(F)F)cc2C(=O)O)cn1 (racemic) [Example 20, 2-[6-(1,1-difluoropropyl)pyridin-3-yl]-5-[({2-[2-(trifluoromethoxy)phenyl]cyclopropyl}carbonyl)amino]benzoic acid]
5 | 6.90 | O=C(O)c1cc(NC(=O)C2CC2c2cccc(C(F)(F)F)c2)ccc1-c1cnn(C2CCC2)c1 (racemic) [Example 12, 2-(1-cyclobutyl-1H-pyrazol-4-yl)-5-[({2-[3-(trifluoromethyl)phenyl]cyclopropyl}carbonyl)amino]benzoic acid]
6 | 5.60 | CC(F)(F)c1ccc(-c2ccc(NC(=O)C3CC3c3ccc(Cl)cc3)cc2C(=O)O)cn1 (racemic) [Example 19, 5-({[2-(4-chlorophenyl)cyclopropyl]carbonyl}amino)-2-[6-(1,1-difluoroethyl)pyridin-3-yl]benzoic acid]
7 | 8.00 | (+)-5-({[trans-2-(4-chlorophenyl)cyclopropyl]carbonyl}amino)-2-(1-cyclobutyl-1H-pyrazol-4-yl)-3-fluorobenzoic acid [Example 3]
8 | 5.75 | CC(C)(C)c1cnn(-c2ccc(NC(=O)C3CC3c3ccc(Cl)cc3)cc2C(=O)O)c1 (racemic) [Example 13, 2-(4-tert-Butyl-1H-pyrazol-1-yl)-5-({[2-(4-chlorophenyl)cyclopropyl]carbonyl}amino)benzoic acid]
9 | 6.39 | CCC(F)(F)c1ccc(-c2ccc(NC(=O)C3CC3c3cccc(C(F)(F)F)c3)cc2C(=O)O)cn1 (racemic) [Example 21, 2-[6-(1,1-difluoropropyl)pyridin-3-yl]-5-[({2-[3-(trifluoromethyl)phenyl]cyclopropyl}carbonyl)amino]benzoic acid]
10 | 7.77 | O=C(O)c1cc(NC(=O)C2CC2c2cccc(Cl)c2)cc(F)c1-c1cnn(C2CCC2)c1 (single isomer, unassigned; (-)) [Example 9, (−)-5-({[2-(3-chlorophenyl)cyclopropyl]carbonyl}amino)-2-(1-cyclobutyl-1H-pyrazol-4-yl)-3-fluorobenzoic acid]
11 | 5.59 | CC(F)(F)c1ccc(-c2ccc(NC(=O)C3CC3c3ccccc3OC(F)(F)F)cc2C(=O)O)cn1 (racemic) [Example 16, 2-[6-(1,1-difluoroethyl)pyridin-3-yl]-5-[({2-[2-(trifluoromethoxy)phenyl]cyclopropyl}carbonyl)amino]benzoic acid]
12 | 7.49 | O=C(O)c1cc(NC(=O)C2CC2c2cccc(Cl)c2)ccc1-c1cnn(C2CCC2)c1 (single isomer, unassigned) [Example 11, 5-({[2-(3-chlorophenyl)cyclopropyl]carbonyl}amino)-2-(1-cyclobutyl-1H-pyrazol-4-yl)benzoic acid]
13 | 6.93 | O=C(O)c1cc(NC(=O)C2CC2c2ccc(Cl)cc2)ccc1-c1cnn(C2CCC2)c1 (single isomer, unassigned) [Example 7, 5-({[2-(4-chlorophenyl)cyclopropyl]carbonyl}amino)-2-(1-cyclobutyl-1H-pyrazol-4-yl)benzoic acid]
14 | 5.60 | CC(F)(F)c1ccc(-c2ccc(NC(=O)C3CC3c3cccc(C(F)(F)F)c3)cc2C(=O)O)cn1 (racemic) [Example 18, 2-[6-(1,1-difluoroethyl)pyridin-3-yl]-5-[({2-[3-(trifluoromethyl)phenyl]cyclopropyl}carbonyl)amino]bentoic acid]
15 | 5.65 | CC(C)(C)c1ccn(-c2ccc(NC(=O)C3CC3c3ccc(Cl)cc3)cc2C(=O)O)n1 (racemic) [Example 14, 2-(3-tert-Butyl-1H-pyrazol-1-yl)-5-({[2-(4-chlorophenyl)cyclopropyl]carbonyl}amino)benzoic acid]
16 | 5.92 | CCC(F)(F)c1ccc(-c2ccc(NC(=O)C3CC3c3cccc(Cl)c3)cc2C(=O)O)cn1 (racemic) [Example 22, 5-({[2-(3-chlorophenyl)cyclopropyl]carbonyl}amino)-2-[6-(1,1-difluoropropyl)pyridin-3-yl]benzoic acid]
17 | 5.93 | (−)-5-({[trans-2-(4-chlorophenyl)cyclopropyl]carbonyl}amino)-2-(1-cyclobutyl-1H-pyrazol-4-yl)-3-fluorobenzoic acid [Example 4]
18 | 5.61 | CC(F)(F)c1ccc(-c2ccc(NC(=O)C3CC3c3cccc(Cl)c3)cc2C(=O)O)cn1 (racemic) [Example 17]
19 | 6.57 | O=C(O)c1cc(NC(=O)C2CC2c2ccc(Cl)cc2)ccc1-c1cnn(C2CCC2)c1 (racemic) [Example 6, 5-({[2-(4-chlorophenyl)cyclopropyl]carbonyl}amino)-2-(1-cyclobutyl-1H-pyrazol-4-yl)benzoic acid]
20 | 5.95 | O=C(O)c1cc(NC(=O)C2CC2c2cccc(Cl)c2)cc(F)c1-c1cnn(C2CCC2)c1 (single isomer, unassigned; (+)) [Example 8, (+)-5-({[2-(3-chlorophenyl)cyclopropyl]carbonyl}amino)-2-(1-cyclobutyl-1H-pyrazol-4-yl)-3-fluorobenzoic acid]

What follows are compounds tested against T2, native human B1 receptors (Homo sapiens, UniProt P46663) (assay: Calcium flux assay (FLIPR) with IMR-90 human foetal lung fibroblasts after IL-1 induction). Conditions: IMR-90 fibroblasts induced with human IL-1; 0.1% BSA in assay buffer; agonist Lys-(Des-Arg)-Bradykinin at EC90; read-out: hB1 IC50 IMR90.
T2 construct: which express native human B1 receptors after induction with human IL-1; Coriell Institute; host or cells: IMR-90 human foetal lung fibroblasts, induced with human IL-1
T2 sequence (P46663 1-353): T1 sequence (P46663 1-353)
Assay type: cell-based
Experimental: Calcium Flux Assay (FLIPR) with Human Fibroblasts for Bradykinin B1 Receptor Antagonist (hB1 IMR-90 IC50)
The Calcium flux Assay was carried out utilising IMR-90 human foetal lung fibroblasts (American Type Culture Collection, Rockville, Md.; and Coriell Institute, Camden, N.J.), which express native human B1 receptors after induction with human IL-1[…].
The fibroblasts were cultured in complete growth media comprised of Dulbecco's modified Eagle's medium (DMEM; Sigma) containing 10% foetal bovine serum, 4 mM L-glutamine, and 1% nonessential amino acids. The cells were maintained in a humidified atmosphere with 5% CO2 at 37° C. and were sub-cultured at a ratio of 1:3, every other day.
For the assay, IMR-90 fibroblasts were harvested using TrypLE Express (GIBCO/Invitrogen) and seeded into 384-well plates (Corning Cellbinding Surface, Cat. 3683) at a density of 15000 cells/well. The following day, cells were treated with 0.35 ng/mL human IL-1[…] in 10% FBS/MEM for 3 h to up-regulate B1 receptors. Induced cells were loaded with fluorescent calcium indicator by incubation with 2.5 μM Fluo-4/AM (Invitrogen) at 37° C., 5% CO2 for 2 h in the presence of 2.5 mM probenecid in 1% FBS/MEM. Extracellular dye was removed by washing with assay buffer (2.5 mM probenecid and 0.1% BSA in 20 mM HEPES/HBSS without bicarbonate or phenol red, pH 7.5). Example compounds were assayed at 8 concentrations in triplicate. After addition of example compounds to the cell plate and incubation for 30 min at 28° C., the addition of B1 agonist Lys-(Des-Arg)-Bradykinin (Bachem, Brackley) at a final concentration of EC90 was carried out on the FLIPR instrument while continuously monitoring Ca^2+-dependent fluorescence at 538 nm. A peptide antagonist Lys-(Des-Arg-Leu)-Bradykinin (Bachem, Brackley) at 20 μM was used to determine the full inhibition as control. IC50 values were determined by the same way described for the FLIPR assay with recombinant cells.

Row | pIC50 | Compound
21 | 5.63 | O=C(O)c1cc(NC(=O)C2CC2c2ccc(Cl)cc2)cc(F)c1-c1ccc(C(F)(F)F)nc1 (racemic) [Example 24, 5-({[2-(4-chlorophenyl)cyclopropyl]carbonyl}amino)-3-fluoro-2-[6-(trifluoromethyl)pyridin-3-yl]benzoic acid]
22 | 7.29 | (+)-5-({[trans-2-(4-chlorophenyl)cyclopropyl]carbonyl}amino)-2-(1-cyclobutyl-1H-pyrazol-4-yl)-3-fluorobenzoic acid [Example 3]
23 | 5.47 | CC(C)(C)c1cnn(-c2ccc(NC(=O)C3CC3c3ccc(Cl)cc3)cc2C(=O)O)c1 (racemic) [Example 13, 2-(4-tert-Butyl-1H-pyrazol-1-yl)-5-({[2-(4-chlorophenyl)cyclopropyl]carbonyl}amino)benzoic acid]
